Experimental data as given in ChEMBL document CHEMBL2407043, “Hydantoin based inhibitors of MMP13--discovery of AZD6605” (Bioorg Med Chem Lett, 2013).
In brackets after ≈: the same amount, converted by molar mass.

Assays:
Rattus norvegicus [1] = organism: Rattus norvegicus; assay: Toxicity in rat assessed as fibrodysplasia after 28 days; type: organism-based; conditions: in vivo, 672 h
Rattus norvegicus [2] = organism: Rattus norvegicus; assay: Toxicity in rat assessed as change in connective tissue after 28 days; type: organism-based; conditions: in vivo, 672 h
[3] = Genotoxicity in mouse lymphoma cells; type: toxicity, cell-based
Salmonella typhimurium = assay: Mutagenic activity in Salmonella typhimurium by Ames assay; type: toxicity, organism-based; conditions: salmonella enterica subsp. enterica serovar typhimurium
Rattus norvegicus [4] = organism: Rattus norvegicus; assay: Toxicity in rat assessed as change in clinical chemistry or hematological parameters after 28 days; type: organism-based; conditions: in vivo, 672 h
Rattus norvegicus [5] = organism: Rattus norvegicus; assay: Toxicity in rat assessed as change in body weight after 28 days; type: organism-based; conditions: in vivo, 672 h
Rattus norvegicus [6] = organism: Rattus norvegicus; assay: Toxicity in rat assessed as change in food and water consumption after 28 days; type: organism-based; conditions: in vivo, 672 h
Rattus norvegicus [7] = organism: Rattus norvegicus; assay: Toxicity in rat assessed as mortality after 28 days; type: organism-based; conditions: in vivo, 672 h
[8] = Oral bioavailability in dog at 1 mg/kg; type: ADME, organism-based, Canis lupus familiaris; conditions: in vivo
[9] = Oral bioavailability in rat at 5 mg/kg; type: ADME, organism-based; conditions: in vivo
[10] = Half life in dog at 0.5 mg/kg, iv and 1 mg/kg, po; type: ADME, organism-based, Canis lupus familiaris; conditions: in vivo
[11] = Volume of distribution at steady state in dog at 0.5 mg/kg, iv and 1 mg/kg, po; type: ADME, organism-based, Canis lupus familiaris; conditions: in vivo, read-out: Vdss
[12] = Clearance in dog at 0.5 mg/kg, iv and 1 mg/kg, po; type: ADME, organism-based, Canis lupus familiaris; conditions: in vivo
[13] = Volume of distribution at steady state in rat at 2 mg/kg, iv and 5 mg/kg, po; type: ADME, organism-based; conditions: in vivo, read-out: Vdss
[14] = Half life in rat at 2 mg/kg, iv and 5 mg/kg, po; type: ADME, organism-based; conditions: in vivo
[15] = Clearance in rat at 2 mg/kg, iv and 5 mg/kg, po; type: ADME, organism-based; conditions: in vivo
[16] = Apparent permeability across basolateral to apical side in human Caco2 cells at 10 uM; type: ADME, cell-based; conditions: Caco-2
Cytochrome P450 3A4 = Cytochrome P450 3A4 (Homo sapiens, UniProt P08684); assay: Inhibition of human CYP3A4; type: ADME
Cytochrome P450 3A4, sequence (P08684 whole entry): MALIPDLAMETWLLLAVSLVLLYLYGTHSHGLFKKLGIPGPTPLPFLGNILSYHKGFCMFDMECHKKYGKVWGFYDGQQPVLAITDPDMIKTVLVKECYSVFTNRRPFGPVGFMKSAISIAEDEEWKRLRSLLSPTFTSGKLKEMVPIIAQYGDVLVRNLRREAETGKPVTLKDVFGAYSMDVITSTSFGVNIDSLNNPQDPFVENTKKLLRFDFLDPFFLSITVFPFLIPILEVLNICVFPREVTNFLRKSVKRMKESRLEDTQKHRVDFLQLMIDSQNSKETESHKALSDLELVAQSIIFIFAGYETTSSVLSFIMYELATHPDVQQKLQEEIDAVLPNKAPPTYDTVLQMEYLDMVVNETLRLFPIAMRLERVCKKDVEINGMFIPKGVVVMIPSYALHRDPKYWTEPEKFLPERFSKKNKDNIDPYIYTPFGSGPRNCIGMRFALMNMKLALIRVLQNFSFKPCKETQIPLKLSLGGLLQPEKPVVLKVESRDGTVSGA

Cytochrome P450 2D6 = Cytochrome P450 2D6 (Homo sapiens, UniProt P10635); assay: Inhibition of human CYP2D6; type: ADME
Cytochrome P450 2D6, sequence (P10635 whole entry): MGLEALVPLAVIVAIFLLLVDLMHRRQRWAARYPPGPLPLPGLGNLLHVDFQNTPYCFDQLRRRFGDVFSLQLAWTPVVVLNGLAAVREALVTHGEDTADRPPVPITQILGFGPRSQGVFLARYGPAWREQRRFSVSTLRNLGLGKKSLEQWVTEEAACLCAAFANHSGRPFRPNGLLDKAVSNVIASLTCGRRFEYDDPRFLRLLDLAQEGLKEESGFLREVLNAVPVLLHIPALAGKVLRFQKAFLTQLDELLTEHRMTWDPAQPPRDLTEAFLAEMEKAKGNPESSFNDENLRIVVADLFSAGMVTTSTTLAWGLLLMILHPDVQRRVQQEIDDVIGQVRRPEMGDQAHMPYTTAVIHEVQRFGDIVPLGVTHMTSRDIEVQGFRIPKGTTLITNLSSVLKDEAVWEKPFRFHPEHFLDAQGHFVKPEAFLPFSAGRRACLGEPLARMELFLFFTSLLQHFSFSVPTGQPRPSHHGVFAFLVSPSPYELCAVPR

Cytochrome P450 2C9 = Cytochrome P450 2C9 (Homo sapiens, UniProt P11712); assay: Inhibition of human CYP2C9; type: ADME
Cytochrome P450 2C9, sequence (P11712 whole entry): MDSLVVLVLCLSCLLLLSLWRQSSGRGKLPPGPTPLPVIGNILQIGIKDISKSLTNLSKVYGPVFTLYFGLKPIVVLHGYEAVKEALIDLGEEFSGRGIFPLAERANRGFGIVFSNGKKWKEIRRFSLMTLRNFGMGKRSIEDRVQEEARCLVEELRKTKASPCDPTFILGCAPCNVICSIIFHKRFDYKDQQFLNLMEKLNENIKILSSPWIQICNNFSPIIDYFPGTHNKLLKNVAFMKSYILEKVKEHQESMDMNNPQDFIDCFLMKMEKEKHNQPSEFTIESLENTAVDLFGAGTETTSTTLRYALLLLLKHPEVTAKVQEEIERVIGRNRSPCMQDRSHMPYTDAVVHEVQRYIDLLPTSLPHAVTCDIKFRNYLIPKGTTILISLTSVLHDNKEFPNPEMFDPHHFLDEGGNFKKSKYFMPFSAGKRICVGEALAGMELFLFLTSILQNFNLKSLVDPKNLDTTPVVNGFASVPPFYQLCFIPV

Cytochrome P450 2C19 = Cytochrome P450 2C19 (Homo sapiens, UniProt P33261); assay: Inhibition of human CYP2C19; type: ADME
Cytochrome P450 2C19, sequence (P33261 whole entry): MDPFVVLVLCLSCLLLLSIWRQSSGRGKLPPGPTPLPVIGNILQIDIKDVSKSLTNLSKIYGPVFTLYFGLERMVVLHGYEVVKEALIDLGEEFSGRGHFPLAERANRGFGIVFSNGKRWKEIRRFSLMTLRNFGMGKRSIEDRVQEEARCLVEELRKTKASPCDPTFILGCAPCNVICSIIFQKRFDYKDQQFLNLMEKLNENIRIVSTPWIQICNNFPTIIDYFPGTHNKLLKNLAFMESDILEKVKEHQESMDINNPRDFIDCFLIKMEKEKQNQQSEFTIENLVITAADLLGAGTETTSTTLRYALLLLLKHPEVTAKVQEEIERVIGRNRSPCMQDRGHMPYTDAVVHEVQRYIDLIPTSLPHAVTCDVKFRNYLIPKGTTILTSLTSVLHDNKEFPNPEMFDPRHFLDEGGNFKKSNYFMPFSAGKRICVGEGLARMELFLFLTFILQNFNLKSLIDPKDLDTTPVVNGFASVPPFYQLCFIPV

Cytochrome P450 1A2 = molecular target: T1, Cytochrome P450 1A2 (Homo sapiens, UniProt P05177); assay: Inhibition of human CYP1A2; type: ADME
T1 sequence (P05177 whole entry): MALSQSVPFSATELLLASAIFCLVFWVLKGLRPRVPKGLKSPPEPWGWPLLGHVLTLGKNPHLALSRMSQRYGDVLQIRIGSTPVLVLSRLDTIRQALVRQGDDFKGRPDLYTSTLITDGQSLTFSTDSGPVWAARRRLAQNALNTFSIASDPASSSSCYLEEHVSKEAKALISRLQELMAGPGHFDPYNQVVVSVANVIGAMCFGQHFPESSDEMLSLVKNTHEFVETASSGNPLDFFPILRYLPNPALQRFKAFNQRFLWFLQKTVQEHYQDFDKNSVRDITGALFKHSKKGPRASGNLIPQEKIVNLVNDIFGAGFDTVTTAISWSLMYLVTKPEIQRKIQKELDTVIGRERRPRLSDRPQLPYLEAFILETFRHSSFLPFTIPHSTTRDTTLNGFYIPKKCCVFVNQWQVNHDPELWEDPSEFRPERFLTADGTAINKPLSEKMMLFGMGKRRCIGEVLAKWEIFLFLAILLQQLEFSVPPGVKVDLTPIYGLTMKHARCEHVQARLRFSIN

[17] = Fraction unbound in dog plasma; type: ADME, cell-free, Canis lupus familiaris
[18] = Fraction unbound in human plasma; type: ADME, cell-free
[19] = Fraction unbound in rat plasma; type: ADME, cell-free
[20] = Solubility of compound in fasted state simulated intestinal fluid; type: physicochemical
[21] = molecular target: Matrix metalloproteinase-14 (Homo sapiens, UniProt P50281)
[22] = Intrinsic clearance in human hepatocytes measured per 10^6 cells; type: ADME, cell-based, Hepatocyte; conditions: read-out: CLH
in vitro [23] = conditions: human, Caco-2
physchem = conditions: buffer, pH 7.4
in vitro [24] = conditions: human, liver microsomes
Cavia porcellus = organism: Cavia porcellus; assay: animal or person; conditions: Dunkin Hartley, sc, 2016 h, read-out: INH
[25] = Thermodynamic solubility of the compound in phosphate buffer at pH 7.4 at 25 degC after 24 hrs; conditions: read-out: Therm_solubility

## C[C@]1(CS(=O)(=O)N2CCC(Oc3ccc(OC(F)(F)C(F)F)cc3)CC2)NC(=O)NC1=O
Rattus norvegicus [1]
  Activity: Non-toxic
Rattus norvegicus [2]
  Activity: Non-toxic
[3]
  Activity: Non-toxic
Salmonella typhimurium
  Activity: Non-toxic
Rattus norvegicus [4]
  Activity: Non-toxic
Rattus norvegicus [5]
  Activity: Non-toxic
Rattus norvegicus [6]
  Activity: Non-toxic
Rattus norvegicus [7]
  Activity: Non-toxic
[8]
  bioavailability: 40%
[9]
  bioavailability: 64%
[10]
  half-life: 35 h
[11]
  Vd: 0.6 L/kg
[12]
  clearance: 0.2 mL/min/kg
[13]
  Vd: 0.6 L/kg
[14]
  half-life: 16 h
[15]
  clearance: 0.4 mL/min/kg
[16]
  Papp B→A at 10 µM: 52 ×10⁻⁶ cm/s
Cytochrome P450 3A4
  IC50: > 10 µM
Cytochrome P450 2D6
  IC50: > 10 µM
Cytochrome P450 2C9
  IC50: > 10 µM
Cytochrome P450 2C19
  IC50: > 10 µM
Cytochrome P450 1A2
  IC50: > 10 µM
[17]
  fraction unbound: 0.05
[18]
  fraction unbound: 0.05
[19]
  fraction unbound: 0.03
[20]
  solubility: 14.9 µM (≈ 7.2 µg/mL)
[21]
  IC50: 2.22 µM
[22]
  hepatocyte CLint: < 2 µL/min/1e6 cells
In vitro [23]
  Papp A→B at 10 µM: 21 ×10⁻⁶ cm/s
physchem
  logD: 2
In vitro [24]
  microsomal CLint: < 2 µL/min/mg
Cavia porcellus
  inhibition in vivo at 11 mg/kg/day: 104%
[25]
  solubility thermodynamic at 24 h: 6.8 µM (≈ 3.29 µg/mL)
